We go through six compounds from publication PMC12461331, “Screening of Medicines for Malaria Venture Open Boxes Identifies Potent SARS-CoV‑2 Papain-like Protease (PL^pro) Inhibitors” (ACS Omega, 2025).

One series deals with SARS-CoV-2 PL^pro (Severe acute respiratory syndrome coronavirus 2, UniProt P0DTD1). It counts as biochemical.
The subject of series [1] is SARS-CoV-2. As to conditions: Vero CCL-81 cells.
A further series deals with PL^pro (Severe acute respiratory syndrome coronavirus 2, UniProt P0DTD1). As to conditions: 20 μM compound, 5 μM enzyme, average of triplicates with SD.
For series [2] the following is noted: PAMPA. Background: In PAMPA a lipid-coated filter parts donor from acceptor wells.
For series [3] the following is noted: human, microsomes.
For series [4] the following is noted: female, BALB/c, mouse, 1 h, pH 7.4.
Series [5] can be described thus: physchem. The conditions noted are these: pH 7.4.
Series [6] is described as follows: in vitro. As to conditions: PAMPA.
A short description of series [7]: physchem. As to conditions: 25 °C, kinetic from dmso stock.
Series [8] is described as follows: in vitro. As to conditions: human, microsomes, pH 7.4.
Series [9] in a line: in vitro. The conditions noted are these: CD1, mouse, microsomes, pH 7.4.
The nature of series [10]: Human liver microsomal stability assay. As to conditions: for half-life at 0.5 μM / microsomal CLint at 0.5 μM: human; for microsomal CLint at 0.5 μM: pH 7.4, HLM CLint(mic). For orientation: Liver microsomes are vesicles of endoplasmic reticulum, rich in cytochrome P450 enzymes.
Series [11] is described as follows: Mouse liver microsomal stability assay. The conditions noted are these: CD1, mouse, pH 7.4.
A short description of the next series: Plasma stability. The conditions noted are these: for half-life at 2 μM: female, BALB/c, mouse, plasma, pH 7.4; for plasma stability remaining 60 min: mouse plasma.
Another series is described as follows: Kinetic solubility. As to conditions: 25 °C, kinetic from dmso stock.
A short description of series [12]: Chromatographic distribution coefficient (eLogD7.4). As to conditions: pH 7.4.
Series [13] in a line: Parallel artificial membrane permeability assay (PAMPA).
The subject of series [14] is SARS-CoV-2.
Series [15] relates to HeLa-ACE2 cells.
Series [16] relates to uninfected HeLa-ACE2 cells. As to conditions: Hela-ACE2 Uninfected Cell Toxicity.
In series [17] the test system is HeLa-ACE2 cells. The series can be described thus: cells. The conditions noted are these: Homo sapiens.
The nature of series [18]: in vitro. The conditions noted are these: human, uninfected HeLa-ACE2 cells.
In series [19] the test system is SARS-CoV-2. Briefly: microbe, parasite or virus in culture.
Where [20] appears, read: microsomes, human liver microsomes.
Where [21] appears, read: microsomes, pH 7.4, HLM T 1/2, human liver microsomes.
[22] abbreviates: Hela-ACE2 % Positive SARS-CoV-2, curve fit.
Where [23] appears, read: Hela-ACE2 CoV-2 Total Cell count, curve fit.

“And” between values parts separate entries of the source, which are not always exact repeats. Equal values may be shown once. Read-outs that look alike come from different tables or passages of the source.

Take `N=C(N)NCCCCC(=O)Nc1cc(C(F)(F)F)cc(NC(=O)c2cc(C(=O)Nc3cc(C(F)(F)F)cc(NC(=O)CCCCNC(=N)N)c3O[C@@H]3CCNC3)ncn2)c1O[C@@H]1CCNC1` [Brilacidin, reference compound]: the “inhibition of SARS-CoV-2 PL^pro” value on SARS-CoV-2 PL^pro was no less than 80%. Further, in the series on SARS-CoV-2 [1] (1 μM), the “decrease of viral replication (viral load by RT-PCR)” value was “over 50%”.
With `COc1ccc(CNC(=O)C2CCN([C@H](C)c3ccccc3)CC2)cc1` [Compound 3], the ΔT m on PL^pro was 0.06 °C and 0.06 ± 0.05 °C. The “permeability (in words)” value in series [2] is recorded as “highly permeable”. The “metabolic stability (in words)” value in series [3] is given as “improved stability”. The “plasma stability remaining 60 min” value in series [4] (2 μM) is 83.80%. Besides, the chromatographic logD in the series “physchem [5]” came out at 3. The compound also returned a Papp at 5 h, 10 μM in the series “in vitro [6]” of 2.35 ×10⁻⁶ cm/s. The kinetic solubility at 24 h in the series “physchem [7]” (pH 2, aqueous buffer) is greater than 22.1 µg/mL; in “physchem [7]” (pH 7.4, aqueous buffer) it was greater than 22.3 µg/mL. Besides, the microsomal CLint at 0.5 μM in the series “in vitro [8]” was determined as 12 µL/min/mg; in the series “in vitro [9]”, 94 µL/min/mg. Besides, the half-life at 0.5 μM was determined as 231 min in series [10] (liver microsomes, pH 7.4) and 29.5 min in series [11] (liver microsomes).
Regarding `COc1ccc(CC(=O)NC2CCN([C@H](C)c3cccc4ccccc34)CC2)cc1` [Compound 6], the ΔT m at PL^pro is 4.8 °C and 4.8 ± 0.1 °C. Moreover, the “permeability (in words)” value in series [2] is reported as “highly permeable”. Also, the “plasma stability remaining 60 min” value in series [4] (2 μM) turned out to be 90.29%. Also, in the series “physchem [5]”, the chromatographic logD was determined as 4.28. Further, the apparent permeability coefficient (Papp) at 5 h, 10 μM in the series “in vitro [6]” came to 1.74 ×10⁻⁶ cm/s. Further, the kinetic solubility at 24 h in the series “physchem [7]” (pH 2, aqueous buffer) was greater than 24.9 µg/mL; in “physchem [7]” (pH 7.4, aqueous buffer) it was greater than 12.7 µg/mL. Also, the microsomal CLint at 0.5 μM amounted to 88.4 µL/min/mg in “in vitro [8]” and 171 µL/min/mg in “in vitro [9]”. The half-life at 2 μM in the series “Plasma stability” is 2310 min. Moreover, the half-life at 0.5 μM is 31.4 min in series [10] (liver microsomes, pH 7.4) and 16.2 min in [11] (liver microsomes).
On PL^pro, `COc1ccc(CC(=O)N2CCN([C@@H](C)c3cccc4ccccc34)CC2)cc1` [Compound 8] had a ΔT m of 0.28 ± 0.05 °C. The “plasma stability remaining 60 min” value in the series “Plasma stability” is 84.48%. The solubility (kinetic) at 24 h in “Kinetic solubility” (pH 2, aqueous buffer) is greater than 22.9 µg/mL; in the series “Kinetic solubility” (pH 7.4, aqueous buffer) it was greater than 15.8 µg/mL. For the same compound, the microsomal CLint at 0.5 μM in series [10] (setting [20]) worked out at 186 µL/min/mg; in [11] (microsomes), 348 µL/min/mg. The half-life at 0.5 μM in series [10] (setting [21]) turned out to be 14.9 min; in series [11] (microsomes) it was 7.97 min. In [12], this compound returned a chromatographic logD of 4.56. In series [13], this compound returned a Papp at 5 h, 10 μM of 1.07 ×10⁻⁶ cm/s.
As to `COc1ccc(CNC(=O)C2CCN(C(C)c3cccc4ccccc34)C2)cc1` (centres unmarked) [Compound 17], the “CoV2 Efficacy (delta S0:Sinf)” value in the series on SARS-CoV-2 [14] (HeLa-ACE2) was determined as 107.984. Moreover, the figures for the “Data Mode” value (with SARS-CoV-2 [14] (Hela-ACE2 % Positive SARS-CoV-2); in the series on HeLa-ACE2 cells [15] (Hela-ACE2 CoV-2 Total Cell count); in [16]) were “decreasing”, “increasing (weakly active)” and “decreasing”, respectively. Moreover, the values for the S0 (in the series on SARS-CoV-2 [14] (setting [22]); in the series with HeLa-ACE2 cells [15] (setting [23]); in series [16] (curve fit)) were 7.984, -9.971 and -3.377, respectively. Moreover, the figures for the Sinf (in the series on SARS-CoV-2 [14] (setting [22]); in the series on HeLa-ACE2 cells [15] (setting [23]); in series [16] (curve fit)) were -100, 100 and -100, respectively. The nHill is 2.951 in the series on SARS-CoV-2 [14] (setting [22]), 1.233 in the series on HeLa-ACE2 cells [15] (setting [23]) and 2.597 in series [16] (curve fit). For the same compound, the “HeLa-ACE2 Total Cell Efficacy (Sinf, note + or -)” value with HeLa-ACE2 cells [15] (infected HeLa-ACE2 total cell count) was 1.233. The qAC50 in series [16] (relation in column qAC50 Mode, unit not given) stood at 2.965e-5. In addition, the “plasma stability remaining 60 min” value in [4] was found to be 73.01%. Besides, the EC50 was greater than 9.61 µM in the series on HeLa-ACE2 cells [17] (HeLa-ACE2, read-out: HeLa-ACE2 Total cells EC50); greater than 9.61 µM with HeLa-ACE2 cells [17] (HeLa-ACE2, read-out: qAC50); 6.49 µM in the series with SARS-CoV-2 [19] (Severe acute respiratory syndrome coronavirus 2, HeLa-ACE2, read-out: CoV-2 EC50, HeLa-ACE2, supplement summary); 6.4 ± 0.4 µM in the series on SARS-CoV-2 [19] (Severe acute respiratory syndrome coronavirus 2, HeLa-ACE2, read-out: SARS-CoV-2 EC50, HeLa-ACE2 cells, average of triplicates); 6.48 µM in the series on SARS-CoV-2 [19] (Severe acute respiratory syndrome coronavirus 2, HeLa-ACE2, read-out: qAC50, Hela-ACE2 % Positive SARS-CoV-2, relation in column qAC50 Mode, unit inferred). Moreover, the AC50 is greater than 9.61 µM with HeLa-ACE2 cells [17] (HeLa-ACE2, read-out: Log AC50 (converted)) and 6.48 µM in the series on SARS-CoV-2 [19] (Severe acute respiratory syndrome coronavirus 2, HeLa-ACE2, read-out: Log AC50 (converted)). The compound further showed an AC50 at 24 h in “in vitro [18]” of 29.6 µM. For the same compound, the CC50 at 24 h came to 29.6 µM in the series “in vitro [18]” (uninfected HeLa-ACE2 CC50, supplement summary) and 29.6 ± 0.2 µM in “in vitro [18]” (uninfected HeLa-ACE2 CC50, uninfected HeLa-ACE2 cells, average of triplicates). Also, the half-life at 2 μM in the series “Plasma stability” came out at 770 min. Moreover, the solubility (kinetic) at 24 h is greater than 24 µg/mL in the series “Kinetic solubility” (pH 2, aqueous buffer) and greater than 19.9 µg/mL in the series “Kinetic solubility” (pH 7.4, aqueous buffer). Besides, the inhibition at 9.61 µM with SARS-CoV-2 [19] (Severe acute respiratory syndrome coronavirus 2, HeLa-ACE2, read-out: inhibition in the highest concentration tested) is greater than 50%. Moreover, the half-life at 0.5 μM in series [10] (microsomes, pH 7.4) was 21.7 min; in [11] (microsomes), 10.3 min. The microsomal CLint at 0.5 μM in [10] (setting [20]) came out at 128 µL/min/mg; in [11] (microsomes) it was 270 µL/min/mg. For the same compound, in series [12], the chromatographic logD turned out to be 4.25. The Papp at 5 h, 10 μM in series [13] is 0.61 ×10⁻⁶ cm/s.
As for `COc1ccc(CNC(=O)C2CCN(C(C)c3cccc4ccccc34)CC2)cc1` (centres unmarked) [MMV1634397], the “inhibition of SARS-CoV-2 PL^pro” value against SARS-CoV-2 PL^pro is recorded as no less than 80%. In addition, on PL^pro, the ΔT m was 6.26 °C and 6.3 ± 0.3 °C. For the same compound, in the series with SARS-CoV-2 [1] (10 μM), the “decrease of viral replication (viral load by RT-PCR)” value is recorded as “over 50%”. In “Plasma stability”, the half-life at 2 μM came to 433 min and the “plasma stability remaining 60 min” value is 54.08%. In the series “Kinetic solubility” (pH 2, aqueous buffer), this compound showed a kinetic solubility at 24 h greater than 24.6 µg/mL. For the same compound, the kinetic solubility at 24 h in “Kinetic solubility” (pH 7.4, aqueous buffer) is greater than 21.6 µg/mL. Besides, in [10] (human liver microsomes), the “HLM CLint(mic)” value is 80.40 µL/min/mg and the “HLM T 1/2” value is reported as 34.48 min. The intrinsic clearance (microsomal CLint) at 0.5 μM in [10] (setting [20]) was 80 µL/min/mg. Also, the half-life at 0.5 μM in [10] (setting [21]) turned out to be 35 min. In series [10] (liver microsomes), the “metabolic stability (in words)” value is on record as “moderately stable”. In addition, in series [11] (microsomes), the half-life at 0.5 μM turned out to be 21.5 min and the microsomal CLint at 0.5 μM is 129 µL/min/mg. This compound returned a chromatographic logD in [12] of 4.17. In series [13], the Papp at 5 h, 10 μM amounted to 1.07 ×10⁻⁶ cm/s and the “permeability (in words)” value was “medium to low permeable”.

What is called chromatographic logD is lipophilicity estimated from chromatographic retention. A word on the Papp: it is a coefficient for how fast a substance crosses the barrier. Low values mean slow passage, high ones fast passage. As usually defined, the kinetic solubility is solubility judged after dilution from a stock solution rather than from solid. As a reminder, the microsomal CLint is the capacity of the preparation to metabolise the compound, expressed as a volume cleared per time. A word on the half-life: it is how long it takes for the measured level to halve. Broadly, the AC50 is the concentration giving half of the maximal activity seen. As usually defined, the CC50 is the concentration giving 50% cytotoxicity.
